Test [1] has as its system IL-2 production. Briefly: Inhibition of IL-2 production in PHA-activated Jurkat cells (ELISA). Format: cell-based. The note with it: Homo sapiens, PHA 2.5 μg/mL, 20 hours. On the procedure:
Jurkat cells were placed in a 96 well plate (0.5 million cells per well in 1% FBS medium) then a test compound of this invention was added at different concentrations. After 10 minutes, the cells were activated with PHA (final concentration 2.5 μg/mL) and incubated for 20 hours at 37° C. under CO2. The final volume was 200 μL. Following incubation, the cells were centrifuged and the supernatants collected and stored at −70° C. prior to assaying for IL-2 production. A commercial ELISA kit (IL-2 Eli-pair, Diaclone Research, Besancon, France) was used to detect production of IL-2, from which dose response curves were obtained.
For orientation: An ELISA detects its analyte on a solid surface through an enzyme-linked reagent.

Test [2] addresses ICRAC current in RBL cells (CRAC ion channel) (Rattus norvegicus, UniProt Q5M848). The experiment in a line: Patch clamp inhibition of ICRAC current in RBL cells. Type of test: cell-based. The note with it: whole-cell patch clamp, inward current at −80 mV, read-out: IC50 (concentration which inhibits 50% of the ICRAC current). As for the experimental part: In general, a whole cell patch clamp method is used to examine the effects of a compound of the invention on a channel that mediates Icrac. In such experiments, a baseline measurement is established for a patched cell. Then a compound to be tested is perfused (or puffed) to cells in the external solution and the effect of the compound on Icrac is measured. A compound that modulates Icrac (e.g., inhibits) is a compound that is useful in the invention for modulating CRAC ion channel activity.
Rat basophilic leukemia cells (RBL-2H3) were grown in DMEM media supplemented with 10% fetal bovine serum in an atmosphere of 95% air/5% CO2. Cells were seeded on glass coverslips 1-3 days before use.
Membrane currents of individual cells were recorded using the whole-cell configuration of the patch clamp technique with an EPC10 (HEKA Electronik, Lambrecht, Germany). Electrodes (2-5 MΩ in resistance) were fashioned from borosilicate glass capillary tubes (Sutter Instruments, Novato, Ca). […]
ICRAC currents were monitored every 2 seconds using a 50 msec protocol, where the voltage was ramped from −100 mV to +100 mV. […]
The ICRAC current level was determined by measuring the inward current amplitude at −80 mV of the voltage ramp in an off-line analysis using MATLAB. The ICRAC current inhibition for each concentration was calculated using peak amplitude in the beginning of the experiment from the same cell. […]
(Patch clamp records ionic current or voltage across a cell membrane.)

ICRAC current in RBL cells (CRAC ion channel), sequence (Q5M848 whole entry, looked up, the tested form may be a part): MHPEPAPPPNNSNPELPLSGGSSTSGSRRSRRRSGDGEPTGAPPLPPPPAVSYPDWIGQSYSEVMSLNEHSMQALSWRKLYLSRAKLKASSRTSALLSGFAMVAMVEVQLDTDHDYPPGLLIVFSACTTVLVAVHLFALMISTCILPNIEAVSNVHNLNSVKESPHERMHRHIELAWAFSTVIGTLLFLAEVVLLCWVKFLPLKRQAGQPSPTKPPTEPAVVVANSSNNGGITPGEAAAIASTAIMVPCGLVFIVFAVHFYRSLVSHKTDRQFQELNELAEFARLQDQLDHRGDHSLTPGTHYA

The molecule `O=C(Nc1c(F)cccc1F)c1ccc(-c2cc(C(F)(F)F)ccc2Cl)s1` [Compound 1, 5-(2-Chloro-5-trifluoromethyl-phenyl)-thiophene-2-carboxylic acid (2,6-difluoro-phenyl)-amide] gave an IC50 in test [1] of 3 nM.

Take `Cc1cnccc1NC(=O)c1ccc(-c2cc(C(F)(F)F)ccc2Cl)s1` [Compound 2, 5-(2-Chloro-5-trifluoromethyl-phenyl)-thiophene-2-carboxylic acid (3-methyl-pyridin-4-yl)-amide]: the IC50 in test [1] amounted to 14 nM.

Regarding `COC(=O)c1ccc(C)c(-c2ccc(C(=O)Nc3c(F)cccc3F)s2)c1` [Compound 3, 3-[5-(2,6-Difluoro-phenylcarbamoyl)-thiophen-2-yl]-4-methyl-benzoic acid methyl ester], the IC50 in test [1] was found to be 6.4 nM.

In the case of `COC(=O)c1ccc(C)c(-c2ccc(C(=O)Nc3ccncc3C)s2)c1` [Compound 4, 4-Methyl-3-[5-(3-methyl-pyridin-4-ylcarbamoyl)-thiophen-2-yl]-benzoic acid methyl ester], in test [1], the IC50 is 58.5 nM.

In test [1], `O=C(Nc1ccc(-c2cccc(C(F)(F)F)c2)s1)c1c(F)cccc1F` [Compound 117, 2,6-Difluoro-N-[5-(3-trifluoromethyl-phenyl)-thiophen-2-yl]-benzamide] yielded an IC50 of 16.5 nM.

`COC(=O)c1ccc(C)c(-c2ccc(NC(=O)c3c(F)cccc3F)s2)c1` [Compound 118, 3-[5-(2,6-Difluoro-benzoylamino)-thiophen-2-yl]-4-methyl-benzoic acid methyl ester] displayed an IC50 in test [1] of 104 nM.

In the case of `Cc1ccc(-c2ncco2)cc1-c1ccc(NC(=O)c2c(F)cccc2F)s1` [Compound 119, 2,6-Difluoro-N-[5-(2-methyl-5-oxazol-2-yl-phenyl)-thiophen-2-yl]-benzamide], in test [1], the IC50 was 94.8 nM.

In turn, `COC(=O)c1cccc(-c2sc(NC(=O)c3c(F)cccc3F)cc2C)c1` [Compound 120, 3-[5-(2,6-Difluoro-benzoylamino)-3-methyl-thiophen-2-yl]-benzoic acid methyl ester] registered an IC50 in test [1] of 87 nM.

`O=C(Nc1ccc(-c2cccc(-c3cnco3)c2)s1)c1c(F)cccc1F` [Compound 121, 2,6-Difluoro-N-[5-(3-oxazol-5-yl-phenyl)-thiophen-2-yl]-benzamide]: the IC50 in test [1] came out at 164 nM.

Consider `COc1ccc(CCCOC(Cn2ccnc2)c2ccc(OC)cc2)cc1` (stereo not shown) [SKF96365], for which the IC50 in test [2] worked out at 4000 nM.
